The record followed here is ChEMBL document CHEMBL1201862, “PubChem BioAssay data set” (2004).

A short description of series [1]: Counterscreen for IDE inhibitors: Luminescence-based cell-based high throughput dose response assay to identify compounds that are cytotoxic to HEK cells. [Related pubchem assays: 434962 (Primary screen (IDE inhibitors in singlicate)), 449730 (Counterscreen (Cytotoxicity in triplicate)), 435028 (Confirmation (IDE inhibitors in triplicate)) …. It counts as functional. The conditions noted are these: HEK293.

For series [2], the target named is T1, Insulin-degrading enzyme (Homo sapiens, UniProt P14735).
T1 sequence (P14735 whole entry): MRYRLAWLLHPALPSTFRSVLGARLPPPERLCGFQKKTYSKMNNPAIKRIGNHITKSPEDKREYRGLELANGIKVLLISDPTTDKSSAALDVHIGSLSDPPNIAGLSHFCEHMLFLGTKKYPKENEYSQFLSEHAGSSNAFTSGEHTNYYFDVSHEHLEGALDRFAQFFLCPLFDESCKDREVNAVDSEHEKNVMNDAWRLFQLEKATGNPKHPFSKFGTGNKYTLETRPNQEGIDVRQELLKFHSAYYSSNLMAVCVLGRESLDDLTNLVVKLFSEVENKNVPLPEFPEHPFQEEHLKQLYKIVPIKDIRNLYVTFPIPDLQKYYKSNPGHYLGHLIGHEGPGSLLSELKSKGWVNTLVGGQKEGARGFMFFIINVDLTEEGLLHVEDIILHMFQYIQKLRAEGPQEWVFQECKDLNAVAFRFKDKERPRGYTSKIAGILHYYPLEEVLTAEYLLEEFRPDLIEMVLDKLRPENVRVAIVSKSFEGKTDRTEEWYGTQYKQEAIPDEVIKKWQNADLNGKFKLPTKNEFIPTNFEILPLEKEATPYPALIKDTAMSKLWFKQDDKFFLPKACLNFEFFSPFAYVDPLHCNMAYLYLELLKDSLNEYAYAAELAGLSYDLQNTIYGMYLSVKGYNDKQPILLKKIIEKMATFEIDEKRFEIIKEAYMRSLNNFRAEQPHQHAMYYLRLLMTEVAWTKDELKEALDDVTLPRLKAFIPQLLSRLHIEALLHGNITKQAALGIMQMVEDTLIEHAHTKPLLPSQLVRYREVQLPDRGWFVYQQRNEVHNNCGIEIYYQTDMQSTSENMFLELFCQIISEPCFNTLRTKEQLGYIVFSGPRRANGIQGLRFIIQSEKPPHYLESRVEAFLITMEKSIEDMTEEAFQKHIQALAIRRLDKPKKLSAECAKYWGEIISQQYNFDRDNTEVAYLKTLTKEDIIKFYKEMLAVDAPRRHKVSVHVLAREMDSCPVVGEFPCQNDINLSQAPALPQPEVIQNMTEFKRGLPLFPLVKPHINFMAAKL
Kind of series: Dose Response: Fluorescence polarization-based cell-based high throughput dose response assay for inhibitors of insulin-degrading enzyme (IDE). [Related pubchem assays: 434962 (Primary screen (IDE inhibitors in singlicate)), 449730 (Counterscreen (Cytotoxicity in triplicate)), 435028 (Confirmation (IDE inhibitors in triplicate)), 434984 (Summary …. It counts as functional.

Series [3] is described as follows: HEK-293T cell viability reduction – luminescence, B-cell screen hits, cytotoxicity control for BCR NF-kB inhibitor project, dose response (AID 489021).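 Also: HEK-293T cells carrying an NF-kB luciferase reporter; cells exposed to compound for about 14 hours before viability readout.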 Format: functional, cell-based.
Series [4] concerns the target T2, Protein Rev (Human immunodeficiency virus type 1 group M subtype B (isolate WMJ22)(HIV-1), UniProt P05866).
T2 sequence (P05866 whole entry): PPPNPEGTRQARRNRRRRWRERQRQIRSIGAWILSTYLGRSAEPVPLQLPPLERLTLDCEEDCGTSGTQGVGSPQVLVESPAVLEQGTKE
Kind of series: inhibitors of Rev protein–RRE RNA complex – biochemical, protein-RNA interaction, dose response (AID 842). On the set-up: species or system Human immunodeficiency virus 1.

In series [5] the target is Large T antigen (Simian virus 40, UniProt P03070). Format: functional, Betapolyomavirus macacae.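 Also: Confirmatory-stage PubChem screen for compounds that inhibit SV40 T antigen.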
Series [6] in a line: luciferase reporter signal suppression in cells – H4 neuroglioma cells, luminescence, dose response (AID 1990). Format: functional, cell-based. Background: Reporter assays use an easily measured gene product as a stand-in for the process of interest.
Series [7] can be described thus: Luminescence Cell-Based Dose Response HTS to Identify Inhibitors of 5'UTR Stem-Loop Driven Prion Protein mRNA Translation in H4 Neuroglioblastoma Cells. [Related pubchem assays: 1827 (Project Summary), 1813 (Primary HTS)]. Format: functional.
Series [8] concerns the target Luciferin 4-monooxygenase (Photinus pyralis, UniProt P08659). Kind of series: inhibition of purified Photinus pyralis luciferase – biochemical, luminescence, dose response (AID 1891).
The nature of series [9]: Luminescence Cell-Based Dose Confirmation HTS to Identify Inhibitors of Platelet Dense Granule Release. [Related pubchem assays: 1663 (Primary HTS), 1678 (Summary of Project)]. It counts as functional.
A short description of series [10]: Luminescence-based counterscreen assay for KLF5 inhibitors: dose response cell-based high throughput screening assay to identify cytotoxic compounds using the IEC-6 intestinal epithelial cell line. [Related pubchem assays: 1700 (Primary screen.), 1834 (Confirmation screen.), 1858 (Summary AID.), 1905 (Counterscreen.)]. Format: functional. (In general: The purpose of a counterscreen is to sort out artefacts and off-target activity.)

Series [11] can be described thus: blockers of bursicon-stimulated LGR2 cAMP reporter – cell-based, HEK293, CRE-luciferase reporter, cherry pick, set 2, dose response (AID 743343).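 Also: transfected cells were stimulated with diluted bursicon conditioned medium after compound addition.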 Format: functional.
The nature of series [12]: blockade of melanocortin 4 receptor signaling – cell-based, plate reader, cherry pick, counter-screen for LGR2 antagonist project, dose response (AID 743444).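 Also: transfected HEK 293 cells stimulated with alpha-MSH peptide; potency of inhibitors of the alpha-MSH evoked signal.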 Format: functional.
Series [13] in a line: viability loss in HEK293 cells – cell-based, plate reader, cherry-picked samples, cytotoxicity control, dose response (AID 743446). It counts as functional.
The target in series [14] is Eukaryotic translation initiation factor 4E (Mus musculus, UniProt P63073). Kind of series: blockers of eIF4G binding by eIF4E – biochemical, TR-FRET, dose response (AID 855).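 Also: potency for disrupting eIF4E binding to eIF4GI seen as loss of FRET.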 It counts as functional.
Series [15] has as its target Peroxisome proliferator-activated receptor gamma/Nuclear receptor coactivator 2 (Homo sapiens, UniProt P37231). It counts as functional.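 Also: agonist potency for raising coactivator recruitment to the receptor.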
Series [16] addresses Peroxisome proliferator-activated receptor gamma/Nuclear receptor coactivator 1 (Homo sapiens, UniProt P37231). Format: functional.
In series [17] the target is Peroxisome proliferator-activated receptor gamma/Nuclear receptor coactivator 3 (Homo sapiens, UniProt P37231). Format: functional.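 Also: agonist potency for raising coactivator recruitment to the receptor.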
The target of series [18] is Cytochrome P450 2C19 (Homo sapiens, UniProt P33261). Nature of the series: Cytochrome panel assay with activity outcomes. Panel member name: p450-cyp2c19 Compounds with AC50 equal or less than 10 uM are considered active. Format: functional. The conditions noted are these: read-out: AC50.
The target of series [19] is T3, Cytochrome P450 3A4 (Homo sapiens, UniProt P08684).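 Also: CYP3A4 tested as one member of a cytochrome P450 panel screen.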
T3 sequence (P08684 whole entry): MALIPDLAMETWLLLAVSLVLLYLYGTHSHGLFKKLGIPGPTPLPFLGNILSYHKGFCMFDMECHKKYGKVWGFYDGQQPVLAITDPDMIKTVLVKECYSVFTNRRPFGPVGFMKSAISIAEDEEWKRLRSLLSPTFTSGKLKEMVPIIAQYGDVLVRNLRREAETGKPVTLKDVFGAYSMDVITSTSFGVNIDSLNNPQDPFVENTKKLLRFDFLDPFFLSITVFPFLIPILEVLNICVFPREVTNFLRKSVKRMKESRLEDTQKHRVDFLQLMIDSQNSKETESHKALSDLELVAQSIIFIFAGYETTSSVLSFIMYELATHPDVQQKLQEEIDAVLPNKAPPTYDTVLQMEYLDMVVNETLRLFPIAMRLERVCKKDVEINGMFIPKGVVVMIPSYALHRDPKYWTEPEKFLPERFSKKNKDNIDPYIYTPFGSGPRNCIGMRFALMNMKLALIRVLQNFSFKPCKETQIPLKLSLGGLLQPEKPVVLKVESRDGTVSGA
Series [20] concerns the target Cytochrome P450 2C9 (Homo sapiens, UniProt P11712).
Series [21] deals with T3, Cytochrome P450 3A4. The source holds these as a separate data set.
For series [22], the target named is T4, Aminopeptidase N (Plasmodium falciparum FcB1/Columbia, UniProt O96935).
T4 sequence (O96935 whole entry): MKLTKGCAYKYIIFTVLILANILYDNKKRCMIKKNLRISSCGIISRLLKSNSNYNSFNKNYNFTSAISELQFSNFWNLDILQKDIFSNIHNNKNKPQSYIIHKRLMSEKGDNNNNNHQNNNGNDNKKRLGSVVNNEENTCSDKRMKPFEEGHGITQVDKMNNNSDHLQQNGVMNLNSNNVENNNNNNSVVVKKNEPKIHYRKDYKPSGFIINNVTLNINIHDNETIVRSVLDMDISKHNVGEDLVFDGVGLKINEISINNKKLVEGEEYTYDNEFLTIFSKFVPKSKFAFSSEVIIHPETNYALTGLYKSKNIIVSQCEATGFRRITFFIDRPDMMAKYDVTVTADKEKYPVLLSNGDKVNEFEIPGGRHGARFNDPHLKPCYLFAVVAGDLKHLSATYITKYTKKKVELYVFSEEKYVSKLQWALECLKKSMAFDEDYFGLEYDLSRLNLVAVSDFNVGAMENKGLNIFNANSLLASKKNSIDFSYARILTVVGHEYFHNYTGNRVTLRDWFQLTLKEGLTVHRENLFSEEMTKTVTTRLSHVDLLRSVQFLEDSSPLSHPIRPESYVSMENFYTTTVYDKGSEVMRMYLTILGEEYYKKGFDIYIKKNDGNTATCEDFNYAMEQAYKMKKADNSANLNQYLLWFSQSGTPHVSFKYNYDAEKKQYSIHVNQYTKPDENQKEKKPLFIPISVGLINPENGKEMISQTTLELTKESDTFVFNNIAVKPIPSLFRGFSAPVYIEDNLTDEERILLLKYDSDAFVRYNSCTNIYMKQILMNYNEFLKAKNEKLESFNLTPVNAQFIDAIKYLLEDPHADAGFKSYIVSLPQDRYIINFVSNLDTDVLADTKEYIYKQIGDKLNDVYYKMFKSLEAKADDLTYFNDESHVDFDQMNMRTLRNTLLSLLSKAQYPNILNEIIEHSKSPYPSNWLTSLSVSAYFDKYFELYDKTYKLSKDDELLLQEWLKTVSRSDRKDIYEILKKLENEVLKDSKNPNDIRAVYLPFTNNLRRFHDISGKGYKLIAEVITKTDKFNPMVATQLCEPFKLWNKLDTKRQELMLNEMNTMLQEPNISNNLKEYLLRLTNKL
Kind of series: malaria alanyl aminopeptidase activity blockers – biochemical, fluorogenic H-Leu-NHMec substrate, 1536-well (AID 1445). More on the design: species or system Plasmodium falciparum 3D7, 3D7.

Series [23] is described as follows: Luminescence Cell-Based Dose Retest to Confirm Inhibitors of Cancer Stem Cells. [Related pubchem assays (depositor defined):AID2717, AID2721]. Format: functional. The conditions noted are these: Homo sapiens.
In series [24] the test system is BJ. Nature of the series: BJ-TERT fibroblast viability loss – cell-based, RAS-independent, luminescence, dose response (AID 1933). The conditions noted are these: Homo sapiens. It counts as functional.
The test system of series [25] is BJ. Kind of series: cells. The conditions noted are these: Homo sapiens. Format: functional, cell-based.
Series [26] relates to BJ. Kind of series: BJ-TERT-LT-ST fibroblast viability loss – cell-based, RAS-independent, luminescence, dose response (AID 1935).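 Also: BJ fibroblasts immortalized with TERT plus LT and ST oncogenes.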 It counts as functional. To be noted: Homo sapiens.
A short description of series [27]: DRD fibroblast viability loss – cell-based, non-viral oncogenic, luminescence, dose response (AID 1934). It counts as functional. To be noted: Homo sapiens.

The source made the active and inactive calls.

Peroxisome proliferator-activated receptor gamma/Nuclear receptor coactivator 1, sequence (P37231 whole entry): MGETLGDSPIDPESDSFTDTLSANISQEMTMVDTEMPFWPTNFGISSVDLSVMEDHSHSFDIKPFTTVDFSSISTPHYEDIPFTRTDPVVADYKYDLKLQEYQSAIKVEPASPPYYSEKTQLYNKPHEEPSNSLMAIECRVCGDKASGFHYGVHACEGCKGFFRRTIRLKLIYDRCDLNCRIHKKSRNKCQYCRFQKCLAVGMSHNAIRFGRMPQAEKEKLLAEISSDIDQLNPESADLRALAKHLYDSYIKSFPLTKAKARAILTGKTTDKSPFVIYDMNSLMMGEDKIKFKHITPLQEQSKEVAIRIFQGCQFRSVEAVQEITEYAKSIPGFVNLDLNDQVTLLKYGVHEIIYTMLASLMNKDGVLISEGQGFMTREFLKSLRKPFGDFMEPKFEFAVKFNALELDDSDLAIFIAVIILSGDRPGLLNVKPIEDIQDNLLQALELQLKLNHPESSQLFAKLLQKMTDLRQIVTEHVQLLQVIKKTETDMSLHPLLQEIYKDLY
Peroxisome proliferator-activated receptor gamma/Nuclear receptor coactivator 1, sequence (Q15788 whole entry, further chain): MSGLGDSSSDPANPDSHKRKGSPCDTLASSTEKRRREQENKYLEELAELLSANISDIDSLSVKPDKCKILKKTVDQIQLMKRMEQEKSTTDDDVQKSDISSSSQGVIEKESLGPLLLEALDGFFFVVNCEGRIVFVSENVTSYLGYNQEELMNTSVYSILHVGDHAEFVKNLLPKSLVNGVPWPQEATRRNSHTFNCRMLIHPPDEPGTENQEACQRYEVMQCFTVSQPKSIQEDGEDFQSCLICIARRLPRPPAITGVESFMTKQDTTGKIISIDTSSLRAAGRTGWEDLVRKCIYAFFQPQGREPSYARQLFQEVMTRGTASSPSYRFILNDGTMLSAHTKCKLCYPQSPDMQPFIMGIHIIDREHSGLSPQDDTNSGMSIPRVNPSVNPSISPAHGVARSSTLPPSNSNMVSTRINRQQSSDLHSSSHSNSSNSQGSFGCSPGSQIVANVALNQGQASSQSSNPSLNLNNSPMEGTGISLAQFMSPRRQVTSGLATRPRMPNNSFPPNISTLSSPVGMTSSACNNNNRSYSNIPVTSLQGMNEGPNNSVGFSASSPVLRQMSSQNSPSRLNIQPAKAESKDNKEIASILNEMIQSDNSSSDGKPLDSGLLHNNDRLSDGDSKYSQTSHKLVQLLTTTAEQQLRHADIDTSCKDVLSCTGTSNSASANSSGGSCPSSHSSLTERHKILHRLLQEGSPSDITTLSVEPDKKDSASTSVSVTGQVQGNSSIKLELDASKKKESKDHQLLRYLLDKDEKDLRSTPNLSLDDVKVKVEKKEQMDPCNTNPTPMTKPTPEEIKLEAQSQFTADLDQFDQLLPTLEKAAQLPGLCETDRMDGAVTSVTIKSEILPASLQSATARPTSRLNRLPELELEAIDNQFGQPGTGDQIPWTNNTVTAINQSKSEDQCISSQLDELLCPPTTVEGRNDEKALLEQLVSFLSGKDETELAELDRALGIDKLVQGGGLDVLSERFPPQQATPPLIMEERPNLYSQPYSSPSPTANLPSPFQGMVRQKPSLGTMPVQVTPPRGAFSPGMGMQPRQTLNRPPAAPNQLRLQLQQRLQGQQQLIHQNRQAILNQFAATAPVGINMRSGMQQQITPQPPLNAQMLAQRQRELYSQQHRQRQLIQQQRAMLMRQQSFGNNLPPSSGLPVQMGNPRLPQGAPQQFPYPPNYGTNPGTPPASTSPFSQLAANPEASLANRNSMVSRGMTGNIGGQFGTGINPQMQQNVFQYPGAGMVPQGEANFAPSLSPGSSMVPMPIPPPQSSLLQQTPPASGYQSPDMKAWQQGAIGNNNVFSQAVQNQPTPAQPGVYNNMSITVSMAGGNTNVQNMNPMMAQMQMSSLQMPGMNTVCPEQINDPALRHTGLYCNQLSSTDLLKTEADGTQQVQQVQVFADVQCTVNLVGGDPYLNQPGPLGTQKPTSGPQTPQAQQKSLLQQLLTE
Peroxisome proliferator-activated receptor gamma/Nuclear receptor coactivator 2, sequence (P37231 whole entry): as the sequence (P37231 whole entry) above
Peroxisome proliferator-activated receptor gamma/Nuclear receptor coactivator 2, sequence (Q15596 whole entry, further chain): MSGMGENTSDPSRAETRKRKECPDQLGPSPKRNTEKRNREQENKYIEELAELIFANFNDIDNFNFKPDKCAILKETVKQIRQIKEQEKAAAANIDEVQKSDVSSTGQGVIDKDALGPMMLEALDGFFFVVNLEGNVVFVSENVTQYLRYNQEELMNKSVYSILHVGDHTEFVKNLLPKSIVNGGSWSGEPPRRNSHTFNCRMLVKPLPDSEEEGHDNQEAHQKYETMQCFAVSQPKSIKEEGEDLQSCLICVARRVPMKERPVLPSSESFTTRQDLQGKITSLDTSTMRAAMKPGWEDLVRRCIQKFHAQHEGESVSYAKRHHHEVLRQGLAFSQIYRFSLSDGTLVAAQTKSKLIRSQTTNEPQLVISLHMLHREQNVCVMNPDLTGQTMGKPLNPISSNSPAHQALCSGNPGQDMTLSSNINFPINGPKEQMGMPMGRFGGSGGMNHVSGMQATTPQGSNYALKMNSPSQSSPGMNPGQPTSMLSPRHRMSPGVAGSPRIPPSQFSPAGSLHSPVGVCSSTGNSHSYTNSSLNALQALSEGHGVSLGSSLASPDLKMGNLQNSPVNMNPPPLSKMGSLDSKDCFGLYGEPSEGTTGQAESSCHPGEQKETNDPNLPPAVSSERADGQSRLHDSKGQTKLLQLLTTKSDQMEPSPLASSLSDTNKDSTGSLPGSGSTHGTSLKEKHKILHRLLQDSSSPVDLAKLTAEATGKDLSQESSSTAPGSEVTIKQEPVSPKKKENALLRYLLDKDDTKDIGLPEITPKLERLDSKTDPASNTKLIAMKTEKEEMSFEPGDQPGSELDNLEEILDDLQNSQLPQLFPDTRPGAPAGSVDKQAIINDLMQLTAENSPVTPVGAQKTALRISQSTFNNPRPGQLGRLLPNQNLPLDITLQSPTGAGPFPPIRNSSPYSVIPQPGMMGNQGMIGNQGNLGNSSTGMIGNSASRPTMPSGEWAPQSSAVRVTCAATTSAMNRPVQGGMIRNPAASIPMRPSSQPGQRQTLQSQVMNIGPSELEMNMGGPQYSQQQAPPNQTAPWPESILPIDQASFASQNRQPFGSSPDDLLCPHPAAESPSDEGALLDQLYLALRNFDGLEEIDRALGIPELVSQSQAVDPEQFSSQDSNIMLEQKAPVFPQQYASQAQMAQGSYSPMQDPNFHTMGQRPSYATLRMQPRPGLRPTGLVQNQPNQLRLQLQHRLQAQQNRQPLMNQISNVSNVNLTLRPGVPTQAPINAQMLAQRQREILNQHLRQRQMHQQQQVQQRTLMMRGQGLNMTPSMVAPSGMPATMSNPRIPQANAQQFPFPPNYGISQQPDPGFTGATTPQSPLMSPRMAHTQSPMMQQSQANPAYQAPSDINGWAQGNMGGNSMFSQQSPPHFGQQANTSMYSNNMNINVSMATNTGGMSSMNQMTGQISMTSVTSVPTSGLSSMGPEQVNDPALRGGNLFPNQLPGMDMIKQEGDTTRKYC
Luciferin 4-monooxygenase, sequence (P08659 whole entry): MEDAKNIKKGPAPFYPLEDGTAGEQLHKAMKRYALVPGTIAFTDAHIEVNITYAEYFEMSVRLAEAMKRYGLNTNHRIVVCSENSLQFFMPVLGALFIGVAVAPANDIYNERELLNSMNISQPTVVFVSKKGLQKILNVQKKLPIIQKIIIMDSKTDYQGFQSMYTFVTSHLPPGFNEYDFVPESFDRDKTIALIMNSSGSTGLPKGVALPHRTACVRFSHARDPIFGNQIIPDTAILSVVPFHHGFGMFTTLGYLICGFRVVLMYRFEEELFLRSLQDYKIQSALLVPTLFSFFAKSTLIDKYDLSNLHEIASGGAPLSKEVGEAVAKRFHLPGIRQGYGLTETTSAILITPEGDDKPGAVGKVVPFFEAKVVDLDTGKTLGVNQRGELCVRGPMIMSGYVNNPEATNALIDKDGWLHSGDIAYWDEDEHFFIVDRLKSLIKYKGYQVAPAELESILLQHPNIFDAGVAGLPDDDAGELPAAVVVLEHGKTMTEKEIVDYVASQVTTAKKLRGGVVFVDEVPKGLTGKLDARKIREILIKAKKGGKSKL

For the compound `CCc1sc(C(=O)Nc2cccc(-n3cnnn3)c2)cc1C`, the values for the IC50 in [1], in [2] and in series [3] were 20.7 µM (not active), 17.3 µM (not active) and > 80 µM (inactive), respectively.

Take `CCOc1cc(-c2ccc(N)c(OCC)c2)ccc1N`: the figures for the IC50 in series [4] and in series [5] were 2.47 µM (active) and 12.3 µM (active), respectively.

As to `Clc1ccccc1/C=C/c1nc(-c2ccccn2)no1`, the EC50 – broadly, the concentration that produces a half-maximal response – was 3.76 µM (active) in series [6], 5.54 µM (active) in series [7], 1.87 µM (active) in series [8] and 6.25 µM (active) in series [9]. Also, the IC50 – broadly, the concentration that gives 50% inhibition – in [10] is listed as > 39.8 µM (not active). In addition, the AC50 (in general, the midpoint of the concentration-response curve, whichever way the signal moves) in series [11] was 2 µM (active); in series [12], 2.74 µM (active); in [13], > 52 µM (inactive).

For `O=C(NCc1ccc2c(c1)OCO2)c1ccc2c(c1)OCCO2`, the IC50 in [14] is 50 µM (inactive).

On to `N#Cc1c(-c2ccccc2)cc(-c2ccccc2)nc1SCc1nnc(-c2ccccc2)o1`, for which the EC50 is on record as 25.1 µM (not active) in [15], 26.1 µM (not active) in [16] and 27.6 µM (not active) in series [17]. For the same compound, the AC50 in series [18] was 1.41 µM (inconclusive); in series [19] it was 7.08 µM (inconclusive); in series [20], 0.251 µM (inconclusive).

Regarding `Cc1cc(Cl)ccc1Oc1ncnc2oc(-c3ccccc3)cc12`, the EC50 in series [15], in series [16] and in series [17] was > 79.4 µM (not active) each time. Besides, in [21], the AC50 result is listed as “inconclusive”.

Take `COc1ccc(S(=O)(=O)N2CCC(C(=O)NCc3ccccc3)CC2)cc1OC`: the IC50 in series [22] was 68.4 µM (active).

`CC(=O)c1cccc(OCC(=O)N2CCN(c3ccc(C(F)(F)F)cn3)CC2)c1`: the IC50 is listed as 19.4 µM (not active) in series [1] and 19.2 µM (not active) in series [2].

As for `CCO[C@@H]1OC(C(=O)N2CCN(Cc3ccc4c(c3)OCO4)CC2)=C[C@H](c2csc3ccccc23)[C@H]1CCCO`, the EC50 in series [15], in series [16] and in series [17] was > 79.4 µM (not active) each time.

With `O=S(=O)(c1ccc(SCc2cccc(Cl)c2)nc1)N1CCCC1`, the IC50 in series [1] was 27.1 µM (not active); in series [2], > 55.9 µM (not active).

Take `NC(=O)c1sc(-c2ccsc2)cc1NS(=O)(=O)c1ccc(C(F)(F)F)cc1`: the IC50 in [22] was 22.1 µM (active). The AC50 in [23] was 11.7 µM (active).

On to `NC(=O)c1ccc(NC(=O)c2ccccc2S(=O)(=O)c2ccccc2[N+](=O)[O-])cc1`, for which, in series [22], the IC50 is 102 µM (active).

Regarding `COC(=O)c1ccc(Oc2cc(C)nc(-n3nc(C)cc3C)n2)cc1`, the EC50 in series [24] was 0.69 µM (active); in series [25], 0.851 µM (active); in [26] it was 0.699 µM (active); in series [27], 2.25 µM (active). Further, the 50% inhibitory concentration (IC50) in series [10] is reported as 34.2 µM (not active). Moreover, in series [19], the AC50 is 39.8 µM (inconclusive).

Take `COc1ccc(OC)c(Nc2cc(C)nc3nc(C)nn23)c1`: the IC50 in [10] is listed as 13 µM (not active).
